What was measured:
Assay type in all cases: cell-based
Enterobacter cloacae = test: MIC against Gram-negative bacteria: Enterobacter cloacae
Method in brief: (§1)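 Purified recombinant human EGF domain proteins are tested by broth dilution in LB against a 5×10^5 CFU/mL inoculum, with two-fold serial dilutions run in triplicate. Plates are incubated at 37° C with shaking, and the MIC is read as the lowest protein concentration without growth.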

Serratia marcescens = test: MIC against Gram-negative bacteria: Serratia marcescens
Method in brief: as §1

E. coli BL21 = test: MIC against Gram-negative bacteria: E. coli BL21; settings: for MIC (μg/mL) E. coli BL21 / MIC: E. coli BL21
Method in brief: as §1

Citrobacter diversus = test: MIC against Gram-negative bacteria: Citrobacter diversus
Method in brief: as §1

Moraxella catarrhalis = test: MIC against Gram-negative bacteria: Moraxella catarrhalis
Method in brief: as §1

Proteus vulgaris = test: MIC against Gram-negative bacteria: Proteus vulgaris
Method in brief: as §1

Proteus mirabilis = test: MIC against Gram-negative bacteria: Proteus mirabilis
Method in brief: as §1

E. coli DH5α = test: Antibacterial activity: MIC and growth curve against E. coli DH5α in 96-well plate; settings: minimal inhibitory concentration against E. coli DH5α; 96-well plate, 5×10^5 CFU/mL, 37° C., judged after 8 h
Method in brief: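 Log-phase DH5α (OD600 about 0.5, 37° C, 185 rpm in LB) was pelleted, resuspended in fresh LB and seeded at 5×10^5 CFU/mL with recombinant protein at 50, 25 and 12.5 μg/mL (two-fold series), in triplicate. Plates were shaken at 175 rpm, 37° C, and OD600 was read every 30 min. MIC was the lowest concentration with no growth.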

Aeromonas hydrophila = test: MIC against Gram-negative bacteria: Aeromonas hydrophila
Method in brief: as §1

Pseudomonas aeruginosa = test: MIC against Gram-negative bacteria: Pseudomonas aeruginosa
Method in brief: as §1

Klebsiella pneumonia = test: MIC against Gram-negative bacteria: Klebsiella pneumonia
Method in brief: as §1

[1] = 96-well plate, 5×10^5 CFU/mL, 37° C., 10 h
[2] = E. cloacae, 10 h cultivation at 37° C.
[3] = S. marcescens, 10 h cultivation at 37° C.
[4] = C. diversus, 10 h cultivation at 37° C.
[5] = M. catarrhalis, 10 h cultivation at 37° C.
[6] = P. vulgaris, 10 h cultivation at 37° C.
[7] = P. mirabilis, 10 h cultivation at 37° C.
[8] = A. hydrophila, 10 h cultivation at 37° C.
[9] = P. aeruginosa, 10 h cultivation at 37° C.
[10] = K. pneumonia, 10 h cultivation at 37° C.

PRT505 (CECHVKGSHSAVCHLETGLCDCKPNVTGQQCDQCLHGYYGLDSGHGCRP; listed as Homo sapiens)
MIC against E. cloacae (Enterobacter cloacae; [1]): 50 µg/mL | MIC against S. marcescens (Serratia marcescens; [1]): 50 µg/mL | MIC against E. coli BL21 (E. coli BL21; [1]): 12.5 µg/mL | MIC against C. diversus (Citrobacter diversus; [1]): 50 µg/mL | MIC against M. catarrhalis (Moraxella catarrhalis; [1]): 25 µg/mL | MIC against P. vulgaris (Proteus vulgaris; [1]): 25 µg/mL | MIC against P. mirabilis (Proteus mirabilis; [1]): 12.5 µg/mL | MIC (E. coli DH5α): 50 µg/mL | MIC against A. hydrophila (Aeromonas hydrophila; [1]): 12.5 µg/mL | MIC against P. aeruginosa (Pseudomonas aeruginosa; [1]): 50 µg/mL | MIC against K. pneumonia (Klebsiella pneumonia; [1]): 12.5 µg/mL

PRT61 (KDECSKDNGGCQQDCVNTFGSYECQCRSGFVLHDNKHDCK; listed as Homo sapiens)
MIC (μg/mL) E. cloacae (Enterobacter cloacae; Enterobacter cloacae, 96-well plate, 5×10^5 CFU/mL, 37° C., 10 h): 12.5 µg/mL | MIC (μg/mL) S. marcescens (Serratia marcescens; Serratia marcescens, 96-well plate, 5×10^5 CFU/mL, 37° C., 10 h): 25 µg/mL | MIC (μg/mL) E. coli BL21 (E. coli BL21; [1]): 50 µg/mL | MIC (μg/mL) C. diversus (Citrobacter diversus; Citrobacter diversus, 96-well plate, 5×10^5 CFU/mL, 37° C., 10 h): 25 µg/mL | MIC (μg/mL) M. catarrhalis (Moraxella catarrhalis; Moraxella catarrhalis, 96-well plate, 5×10^5 CFU/mL, 37° C., 10 h): 25 µg/mL | MIC (μg/mL) P. vulgaris (Proteus vulgaris; Proteus vulgaris, 96-well plate, 5×10^5 CFU/mL, 37° C., 10 h): 12.5 µg/mL | MIC (μg/mL) P. mirabilis (Proteus mirabilis; Proteus mirabilis, 96-well plate, 5×10^5 CFU/mL, 37° C., 10 h): 25 µg/mL | MIC (E. coli DH5α): 12.5 µg/mL | MIC (μg/mL) A. hydrophila (Aeromonas hydrophila; Aeromonas hydrophila, 96-well plate, 5×10^5 CFU/mL, 37° C., 10 h): 12.5 µg/mL | MIC (μg/mL) P. aeruginosa (Pseudomonas aeruginosa; Pseudomonas aeruginosa, 96-well plate, 5×10^5 CFU/mL, 37° C., 10 h): 12.5 µg/mL | MIC (μg/mL) K. pneumonia (Klebsiella pneumonia; Klebsiella pneumonia, 96-well plate, 5×10^5 CFU/mL, 37° C., 10 h): 12.5 µg/mL

PRT1027 (PGNPCYDGSHMCDTTARCHPGTGVDYTCECASGYQGDGRNCV; listed as Homo sapiens)
MIC (Enterobacter cloacae; [2]): 50 µg/mL | MIC (Serratia marcescens; [3]): 50 µg/mL | MIC (E. coli BL21; 10 h cultivation at 37° C.): 25 µg/mL | MIC (Citrobacter diversus; [4]): 50 µg/mL | MIC (Moraxella catarrhalis; [5]): 12.5 µg/mL | MIC (Proteus vulgaris; [6]): 12.5 µg/mL | MIC (Proteus mirabilis; [7]): 50 µg/mL | MIC (E. coli DH5α): 12.5 µg/mL | MIC (Aeromonas hydrophila; [8]): 12.5 µg/mL | MIC (Pseudomonas aeruginosa; [9]): 12.5 µg/mL | MIC (Klebsiella pneumonia; [10]): 25 µg/mL

PRT817 (FGPGCEQRCQCQHGAACDHVSGACTCPAGWRGTFCE; listed as Homo sapiens)
MIC (μg/mL) E. cloacae (Enterobacter cloacae; E. cloacae, 10 h cultivation at 37° C., 5×10^5 CFU/mL): 12.5 µg/mL | MIC (μg/mL) S. marcescens (Serratia marcescens; S. marcescens, 10 h cultivation at 37° C., 5×10^5 CFU/mL): 12.5 µg/mL | MIC (μg/mL) E. coli BL21 (E. coli BL21; 10 h cultivation at 37° C., 5×10^5 CFU/mL): 12.5 µg/mL | MIC (μg/mL) C. diversus (Citrobacter diversus; C. diversus, 10 h cultivation at 37° C., 5×10^5 CFU/mL): 50 µg/mL | MIC (μg/mL) M. catarrhalis (Moraxella catarrhalis; M. catarrhalis, 10 h cultivation at 37° C., 5×10^5 CFU/mL): 25 µg/mL | MIC (μg/mL) P. vulgaris (Proteus vulgaris; P. vulgaris, 10 h cultivation at 37° C., 5×10^5 CFU/mL): 50 µg/mL | MIC (μg/mL) P. mirabilis (Proteus mirabilis; P. mirabilis, 10 h cultivation at 37° C., 5×10^5 CFU/mL): 12.5 µg/mL | MIC (E. coli DH5α): 50 µg/mL | MIC (μg/mL) A. hydrophila (Aeromonas hydrophila; A. hydrophila, 10 h cultivation at 37° C., 5×10^5 CFU/mL): 25 µg/mL | MIC (μg/mL) P. aeruginosa (Pseudomonas aeruginosa; P. aeruginosa, 10 h cultivation at 37° C., 5×10^5 CFU/mL): 50 µg/mL | MIC (μg/mL) K. pneumonia (Klebsiella pneumonia; K. pneumonia, 10 h cultivation at 37° C., 5×10^5 CFU/mL): 25 µg/mL

PRT955 (DVDECLLQPNACQNGGTCANRNGGYGCVCVNGWSGDDCS; listed as Homo sapiens)
MIC (Enterobacter cloacae; [2]): 25 µg/mL | MIC (Serratia marcescens; [3]): 12.5 µg/mL | MIC (E. coli BL21; 10 h cultivation at 37° C.): 12.5 µg/mL | MIC (Citrobacter diversus; [4]): 25 µg/mL | MIC (Moraxella catarrhalis; [5]): 12.5 µg/mL | MIC (Proteus vulgaris; [6]): 25 µg/mL | MIC (Proteus mirabilis; [7]): 12.5 µg/mL | MIC (E. coli DH5α): 50 µg/mL | MIC (Aeromonas hydrophila; [8]): 12.5 µg/mL | MIC (Pseudomonas aeruginosa; [9]): 25 µg/mL | MIC (Klebsiella pneumonia; [10]): 12.5 µg/mL

From patent US9833497B2, “Human originated EGF domain proteins and use of the same” (CHENGDU SOURCEBIO LIMITED-LIABILITY COMPANY, priority 2013, dated 2017)
